Among the data in patent publication US20240116985A1, “STAPLED PEPTIDES AND METHODS THEREOF” (priority 2020, published 2024) are IC50 values, retold here.

The target in the assay is T1, full-length beta-Catenin (Uniprot ID P35222) (Homo sapiens, UniProt P35222).
T1 construct: 10 nM full-length beta-Catenin (Uniprot ID P35222)
T1 sequence (P35222 1-781): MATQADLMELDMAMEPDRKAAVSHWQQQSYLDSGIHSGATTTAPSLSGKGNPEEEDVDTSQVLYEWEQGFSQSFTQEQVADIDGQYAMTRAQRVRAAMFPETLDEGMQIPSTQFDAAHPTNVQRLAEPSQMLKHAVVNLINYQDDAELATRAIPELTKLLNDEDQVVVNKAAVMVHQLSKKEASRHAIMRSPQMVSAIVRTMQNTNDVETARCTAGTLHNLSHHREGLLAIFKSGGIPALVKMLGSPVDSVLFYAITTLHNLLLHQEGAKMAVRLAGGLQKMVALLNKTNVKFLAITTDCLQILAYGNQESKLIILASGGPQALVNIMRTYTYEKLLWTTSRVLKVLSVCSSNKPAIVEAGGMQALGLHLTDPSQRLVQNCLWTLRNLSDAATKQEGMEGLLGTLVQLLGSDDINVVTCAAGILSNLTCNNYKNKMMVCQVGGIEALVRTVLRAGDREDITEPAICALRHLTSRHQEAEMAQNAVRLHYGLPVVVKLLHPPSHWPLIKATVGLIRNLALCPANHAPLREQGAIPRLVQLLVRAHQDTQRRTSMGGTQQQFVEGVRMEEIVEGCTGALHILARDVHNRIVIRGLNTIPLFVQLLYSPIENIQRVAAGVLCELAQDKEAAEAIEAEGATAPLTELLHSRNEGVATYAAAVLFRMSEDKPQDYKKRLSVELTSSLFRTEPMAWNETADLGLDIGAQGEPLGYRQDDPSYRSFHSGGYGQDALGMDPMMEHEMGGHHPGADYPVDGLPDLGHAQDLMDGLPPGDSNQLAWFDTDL
Briefly: Fluorescence polarization IC50 (beta-catenin / 5FAM-TCF4 10-53 competition). Conditions: fluorescence polarization; read-out: beta-Catenin FP IC50. It is filed as binding. A general note: In fluorescence polarisation assays a small probe gives low polarisation when free and higher when bound to something large.

For orientation: IC50 means the concentration that inhibits the measured activity by half. `CC(=O)N1CCC[C@]12CC=CCCCC1(CCCC=CCCCOC(=O)N3CC[C@@](C(=O)N[C@@H](Cc4ccsc4)C(=O)N[C@@H](Cc4csc5ccccc45)C(=O)N[C@@H](CCC(N)=O)C(N)=O)(C3)NC(=O)[C@H](CC(N)=O)NC(=O)[C@H](Cc3ccccc3)NC(=O)[C@H](C)NC(=O)[C@H](C)NC(=O)[C@H](CC(N)=O)NC(=O)[C@H](CCC(N)=O)NC1=O)NC(=O)[C@H](CC(C)(C)C)NC(=O)[C@H](CC(=O)O)NC2=O` (stereo partly drawn) [I-1560, Ac-PL3-Asp-Npg-B5-Gln-Asn-Ala-Ala-Phe-Asn-PyrS2-3Thi-BztA-Gln-NH2]: the IC50 is 368 nM.
Regarding `CC(=O)N1CCC[C@]12CC=CCCCC1(CCCC=CCCCOC(=O)N3CC[C@@](C(=O)N[C@@H](Cc4ccsc4)C(=O)N[C@@H](Cc4csc5ccccc45)C(=O)N[C@@H](CCC(N)=O)C(N)=O)(C3)NC(=O)[C@H](CC(N)=O)NC(=O)[C@H](Cc3ccccc3)NC(=O)[C@H](C)NC(=O)[C@H](C)NC(=O)[C@H](CC(N)=O)NC(=O)[C@H](CO)NC1=O)NC(=O)[C@H](CC(C)(C)C)NC(=O)[C@H](CC(=O)O)NC2=O` (stereo partly drawn) [I-1561, Ac-PL3-Asp-Npg-B5-Ser-Asn-Ala-Ala-Phe-Asn-PyrS2-3Thi-BztA-Gln-NH2], the IC50 was found to be 2600 nM.
As to `CC(=O)N1CCC[C@]12CC=CCCCC1(CCCC=CCCCOC(=O)N3CC[C@@](C(=O)N[C@@H](Cc4ccsc4)C(=O)N[C@@H](Cc4csc5ccccc45)C(=O)N[C@@H](CCC(N)=O)C(N)=O)(C3)NC(=O)[C@H](CC(N)=O)NC(=O)[C@H](Cc3ccccc3)NC(=O)[C@H](C)NC(=O)[C@H](C)NC(=O)[C@H](CC(N)=O)NC(=O)[C@H](CC(C)C)NC1=O)NC(=O)[C@H](CC(C)(C)C)NC(=O)[C@H](CC(=O)O)NC2=O` (stereo partly drawn) [I-1562, Ac-PL3-Asp-Npg-B5-Leu-Asn-Ala-Ala-Phe-Asn-PyrS2-3Thi-BztA-Gln-NH2], the IC50 was found to be 5020 nM.
As for `CC(=O)N1CCC[C@]12CC=CCCCC1(CCCC=CCCCOC(=O)N3CC[C@@](C(=O)N[C@@H](Cc4ccsc4)C(=O)N[C@@H](Cc4csc5ccccc45)C(=O)N[C@@H](CCC(N)=O)C(N)=O)(C3)NC(=O)[C@H](CC(N)=O)NC(=O)[C@H](Cc3ccccc3)NC(=O)[C@H](C)NC(=O)[C@H](C)NC(=O)[C@H](CC(N)=O)NC(=O)[C@H](CC(C)C)NC1=O)NC(=O)[C@H](CC(C)(C)C)NC(=O)[C@H](CC(=O)O)NC2=O` (stereo partly drawn) [I-1563, Ac-PL3-Asp-Npg-B5-Leu-Asn-Ala-Ala-Phe-Asn-PyrS2-3Thi-BztA-Gln-NH2], the figure is 2850 nM; as for `CC(=O)N1CCC[C@]12CC=CCCCC1(CCCC=CCCCOC(=O)N3CC[C@@](C(=O)N[C@@H](Cc4ccsc4)C(=O)N[C@@H](Cc4csc5ccccc45)C(=O)N[C@@H](CCC(N)=O)C(N)=O)(C3)NC(=O)[C@H](CC(N)=O)NC(=O)[C@H](Cc3ccccc3)NC(=O)[C@H](C)NC(=O)[C@H](C)NC(=O)[C@H](Cc3ccc(O)cc3)NC(=O)[C@H](CC(N)=O)NC1=O)NC(=O)[C@H](CC(C)(C)C)NC(=O)[C@H](CC(=O)O)NC2=O` (stereo partly drawn) [I-1568, Ac-PL3-Asp-Npg-B5-Asn-Tyr-Ala-Ala-Phe-Asn-PyrS2-3Thi-BztA-Gln-NH2], 7180 nM; as for `CC(=O)N1CCC[C@]12CC=CCCCC1(CCCC=CCCCOC(=O)N3CC[C@@](C(=O)N[C@@H](Cc4ccsc4)C(=O)N[C@@H](Cc4csc5ccccc45)C(=O)N[C@@H](CCC(N)=O)C(N)=O)(C3)NC(=O)[C@H](CC(N)=O)NC(=O)[C@H](Cc3ccccc3)NC(=O)[C@H](C)NC(=O)[C@H](C)NC(=O)[C@H](Cc3ccc(O)cc3)NC(=O)[C@H](CC(N)=O)NC1=O)NC(=O)[C@H](CC(C)(C)C)NC(=O)[C@H](CC(=O)O)NC2=O` (stereo partly drawn) [I-1569, Ac-PL3-Asp-Npg-B5-Asn-Tyr-Ala-Ala-Phe-Asn-PyrS2-3Thi-BztA-Gln-NH2], 2660 nM.
The result for `CC(=O)N1CCC[C@]12CC=CCCCC1(CCCC=CCCCOC(=O)N3CC[C@@](C(=O)N[C@@H](Cc4ccsc4)C(=O)N[C@@H](Cc4csc5ccccc45)C(=O)N[C@@H](CCC(N)=O)C(N)=O)(C3)NC(=O)[C@H](CC(N)=O)NC(=O)[C@H](Cc3ccccc3)NC(=O)[C@H](C)NC(=O)[C@H](C)NC(=O)[C@H](CC(C)C)NC(=O)[C@H](CC(N)=O)NC1=O)NC(=O)[C@H](CC(C)(C)C)NC(=O)[C@H](CC(=O)O)NC2=O` (stereo partly drawn) [I-1570, Ac-PL3-Asp-Npg-B5-Asn-Leu-Ala-Ala-Phe-Asn-PyrS2-3Thi-BztA-Gln-NH2] reads 1340 nM; that for `CC(=O)N1CC2CC1C(=O)N[C@@H](CC(=O)O)C(=O)N[C@@H](CC(C)(C)C)C(=O)NC1(CCCC=CCCCOC(=O)N3CC[C@@](C(=O)N[C@@H](Cc4ccsc4)C(=O)N[C@@H](Cc4csc5ccccc45)C(=O)N[C@@H](CCC(N)=O)C(N)=O)(C3)NC(=O)[C@H](CC(N)=O)NC(=O)[C@H](Cc3ccccc3)NC(=O)[C@H](C)NC(=O)[C@H](C)NC(=O)[C@H](CC(=O)O)NC(=O)[C@H](CC(=O)O)NC1=O)CCCC=CCC(=O)O2` (stereo partly drawn) [I-1575, Ac-HypEs4-Asp-Npg-B5-Asp-Asp-Ala-Ala-Phe-Asn-PyrS2-3Thi-BztA-Gln-NH2], 79 nM; that for `CC(=O)N1CCC[C@]12CC=CCCCC1(CCCC=CCCCOC(=O)N3CC[C@@](C(=O)N[C@@H](Cc4ccccc4)C(=O)N[C@@H](Cc4csc5ccccc45)C(=O)N[C@@H](CCC(N)=O)C(N)=O)(C3)NC(=O)[C@H](CC(C)C)NC(=O)[C@H](Cc3ccccc3)NC(=O)[C@H](C)NC(=O)[C@H](CCCCNC(C)C)NC(=O)[C@H]([C@@H](C)O)NC(=O)[C@H](CC(=O)O)NC1=O)NC(=O)[C@H](Cc1ccccc1)NC(=O)[C@H](CC(N)=O)NC2=O` (stereo partly drawn) [I-1580, Ac-PL3-Asn-Phe-B5-Asp-Thr-iPrLys-Ala-Phe-Leu-PyrS2-Phe-BztA-Gln-NH2], 1430 nM.
As for `CC(=O)N1CCC[C@]12CC=CCCCC1(CCCC=CCCCOC(=O)N3CC[C@@](C(=O)N[C@@H](Cc4ccccc4)C(=O)N[C@@H](Cc4csc5ccccc45)C(=O)N[C@@H](CCC(N)=O)C(N)=O)(C3)NC(=O)[C@H](CC(C)C)NC(=O)[C@H](Cc3ccccc3)NC(=O)[C@H](C)NC(=O)[C@H](CCCCNC(C)C)NC(=O)[C@H]([C@@H](C)O)NC(=O)[C@H](CC(=O)O)NC1=O)NC(=O)[C@H](CC(C)C)NC(=O)[C@H](CC(N)=O)NC2=O` (stereo partly drawn) [I-1582, Ac-PL3-Asn-Leu-B5-Asp-Thr-iPrLys-Ala-Phe-Leu-PyrS2-Phe-BztA-Gln-NH2], the figure is 1220 nM; as for `CC(=O)N1CCC[C@]12CC=CCCCC1(CCCC=CCCCOC(=O)N3CC[C@@](C(=O)N[C@@H](Cc4ccccc4)C(=O)N[C@@H](Cc4csc5ccccc45)C(=O)N[C@@H](CCC(N)=O)C(N)=O)(C3)NC(=O)[C@H](CC(C)C)NC(=O)[C@H](Cc3ccccc3)NC(=O)[C@H](C)NC(=O)[C@H](CCCCNC(C)C)NC(=O)[C@H]([C@@H](C)O)NC(=O)[C@H](CC(=O)O)NC1=O)NC(=O)[C@H](CO)NC(=O)[C@H](CC(N)=O)NC2=O` (stereo partly drawn) [I-1583, Ac-PL3-Asn-Ser-B5-Asp-Thr-iPrLys-Ala-Phe-Leu-PyrS2-Phe-BztA-Gln-NH2], 3420 nM; as for `CC(=O)N1CCC[C@]12CC=CCCCC1(CCCC=CCCCOC(=O)N3CC[C@@](C(=O)N[C@@H](Cc4ccccc4)C(=O)N[C@@H](Cc4csc5ccccc45)C(=O)N[C@@H](CCC(N)=O)C(N)=O)(C3)NC(=O)[C@H](CC(C)C)NC(=O)[C@H](Cc3ccccc3)NC(=O)[C@H](C)NC(=O)[C@H](CCCCNC(C)C)NC(=O)[C@H]([C@@H](C)O)NC(=O)[C@H](CC(=O)O)NC1=O)NC(=O)[C@H](CCC(N)=O)NC(=O)[C@H](CC(N)=O)NC2=O` (stereo partly drawn) [I-1584, Ac-PL3-Asn-Gln-B5-Asp-Thr-iPrLys-Ala-Phe-Leu-PyrS2-Phe-BztA-Gln-NH2], 2440 nM.
With `CC(=O)N1CCC[C@]12CC=CCCCC1(CCCC=CCCCOC(=O)N3CC[C@@](C(=O)N[C@@H](Cc4ccccc4)C(=O)N[C@@H](Cc4csc5ccccc45)C(=O)N[C@@H](CCC(N)=O)C(N)=O)(C3)NC(=O)[C@H](CC(C)C)NC(=O)[C@H](Cc3ccccc3)NC(=O)[C@H](C)NC(=O)[C@H](CCCCNC(C)C)NC(=O)[C@H]([C@@H](C)O)NC(=O)[C@H](CC(=O)O)NC1=O)NC(=O)[C@H](CCCCNC(C)C)NC(=O)[C@H](CC(N)=O)NC2=O` (stereo partly drawn) [I-1591, Ac-PL3-Asn-iPrLys-B5-Asp-Thr-iPrLys-Ala-Phe-Leu-PyrS2-Phe-BztA-Gln-NH2], the IC50 is 3110 nM.
The result for `CC(=O)N1CCC[C@]12CC=CCCCC1(CCCC=CCCCOC(=O)N3CC[C@@](C(=O)N[C@@H](Cc4ccccc4)C(=O)N[C@@H](Cc4csc5ccccc45)C(=O)N[C@@H](CCC(N)=O)C(N)=O)(C3)NC(=O)[C@H](CC(C)C)NC(=O)[C@H](Cc3ccccc3)NC(=O)[C@H](C)NC(=O)[C@H](CCCCNC(C)C)NC(=O)[C@H](Cc3cccc(C(N)=O)c3)NC(=O)[C@H](CC(=O)O)NC1=O)NC(=O)[C@H](CC(C)(C)C)NC(=O)[C@H](CC(N)=O)NC2=O` (stereo partly drawn) [I-1592, Ac-PL3-Asn-Npg-B5-Asp-3cbmf-iPrLys-Ala-Phe-Leu-PyrS2-Phe-BztA-Gln-NH2] reads 2850 nM.
